Measured values as given in patent US20230116114A1, “COMPOUNDS AND COMPOSITIONS FOR TREATING CNS DISORDERS” (Blue Oak Pharmaceuticals, Inc., priority 2020, published 2023).
Where a name gives a salt, the structure may show the parent alone.

Tested on: mice
Assay: SmartCube in vivo neuropharmacological behavioral assay
Settings: for minimal effective dose: Mus musculus, ip, 0.25 h, dose having 50% or more total activity in SmartCube, i.p., read-out: MED (minimal effective dose); for AD: antidepressant (percent probability) / AG: analgesic (percent probability) / AP: antipsychotic (percent probability) / AX: anxiolytic (percent probability) / CE: cognitive enhancer (percent probability) / HA: hallucinogenic (percent probability) / MS: mood stabilizer (percent probability) / PS (percent probability) / SD: sedative hypnotic (percent probability) / SE: side effects (percent probability) / UN: uncharacterized CNS activity (percent probability) / XG: anxiogenic (percent probability): SmartCube, i.p. 15 min before test, result at the MED
Protocol: The compounds were evaluated for their CNS related properties (e.g., the treatment, prevention or diagnosis of CNS or CNS-related disorders and/or amelioration of symptoms) using neuropharmacological screening methods described in S. L. Roberts et al., Front. Neurosci. 2011, 5:103 (hereinafter referred to as “Roberts,” the contents of which are incorporated herein by reference in their entirety).
According to Roberts, intact systems are useful in detecting improvement in disease-relevant endpoints, because psychiatric diseases generally result from disorders of cell-cell communication or circuitry. The endpoints are typically behavioral in nature, often requiring human observation and interpretation. In order to test multiple compounds for behavioral effects relevant to neurological and psychiatric diseases and disorders, PsychoGenics, Inc. (Paramus, N.J. “PGI”) developed SmartCube®, an automated system in which behaviors of compound-treated mice are captured by digital video and analyzed with computer algorithms to facilitate testing of multiple compounds for behavioral effects relevant to psychiatric disease. (D. Brunner et al., Drug Discov. Today 2002, 7:S107-S112; Alexandrov et al., Eur. J. Pharmacol. 2015, 753:127-134; the contents of each of which are incorporated herein by reference in their entirety).
The SmartCube® system is described in Example 2.2 of U.S. Pat. No. 9,758,529 and Example 289 of WIPO Publication No. WO2018/023070, the contents of each of which are incorporated herein by reference in their entirety.
According to the present disclosure, compounds identified may be evaluated using the SmartCube® system. The results of such analysis correlate certain patterns or combinations of behaviors to CNS effects along a percent probability scale of 0-100 where zero (0) reflects the limit of quantitation (LOQ).
The compounds of the present disclosure were evaluated for their CNS related properties (e.g., the treatment, prevention or diagnosis of CNS or CNS-related disorders and/or amelioration of symptoms) using neuropharmacological screening methods described in S. L. Roberts et al., Front. Neurosci. 2011, 5:103 (hereinafter referred to as “Roberts,” the contents of which are incorporated herein by reference in their entirety).
The SmartCube® system described herein was utilized to compare the behavioral signature of a test compound to a database of behavioral signatures obtained using a large set of diverse reference compounds (including but not limited to antipsychotics, anxiolytics, antidepressants and bipolar disorder medicine), thereby predicting the neuropharmacological effects of a test compound by similarity to major classes of compounds. It produces an activity signature indicating the probability that the activity of the test compound at the administered dose matches a given class of neuropharmacological agents. The test compound is simultaneously compared against multiple classes of agents; thus, a separate probability is generated for each behavioral effect measured (such as but not limited to anxiolytic activity and analgesic activity).
The compounds of the present disclosure were dissolved in a mixture of Pharmasolve™ (N-methyl-2-pyrrolidone (NMP)) and were injected i.p. 15 min. before the behavioral test. For each compound, injections were administered at different dose levels (e.g., 0.3, 1, 3, 10 and 30 mg per kg (mpk)). A compound's minimal effective dose (MED; see Table 3) is a measure of the compound's potency. The MED was defined as the dose (in mpk) having 50% or more total activity in SmartCube®. For each behavioral effect measured, results at the MED are presented. CNS activities of the compounds were recorded (see Table 2). In Table 1, a key to the percent probabilities (probability ×100) for each behavioral effect (“X”) are defined provided, where LOQ is the limit of quantification.

Row | Structure (SMILES) | minimal effective dose [mg/kg] | AD: antidepressant (percent probability) | AG: analgesic (percent probability) | AP: antipsychotic (percent probability) | AX: anxiolytic (percent probability) | CE: cognitive enhancer (percent probability) | HA: hallucinogenic (percent probability) | MS: mood stabilizer (percent probability) | PS (percent probability) | SD: sedative hypnotic (percent probability) | SE: side effects (percent probability) | UN: uncharacterized CNS activity (percent probability) | XG: anxiogenic (percent probability)
1 | CCC(C)N1C2CCCC1c1ccccc12 (stereo not drawn) [Compound 12, 12-(Butan-2-yl)-12-azatricyclo[6.3.1.0^2,7]dodeca-2,4,6-triene] | 1 to 10 | ++ (5% ≤ X < 25%) | + (LOQ ≤ X < 5%) | + (LOQ ≤ X < 5%) | ++ (5% ≤ X < 25%) | + (LOQ ≤ X < 5%) | + (LOQ ≤ X < 5%) | + (LOQ ≤ X < 5%) | + (LOQ ≤ X < 5%) | + (LOQ ≤ X < 5%) | + (LOQ ≤ X < 5%) | +++ (25% ≤ X < 50%) | + (LOQ ≤ X < 5%)
2 | CCN1C2CCCC1c1ccccc12 [Compound 6, 12-Ethyl-12-azatricyclo[6.3.1.0,]dodeca-2,4,6-triene hydrochloride] | 10 to 30 | +++ (25% ≤ X < 50%) | ++ (5% ≤ X < 25%) | + (LOQ ≤ X < 5%) | ++ (5% ≤ X < 25%) | + (LOQ ≤ X < 5%) | + (LOQ ≤ X < 5%) | + (LOQ ≤ X < 5%) | + (LOQ ≤ X < 5%) | + (LOQ ≤ X < 5%) | + (LOQ ≤ X < 5%) | + (LOQ ≤ X < 5%) | + (LOQ ≤ X < 5%)
3 | c1ccc(CCN2C3CCCC2c2ccccc23)cc1 [Compound 5, 12-(2-Phenylethyl)-12-azatricyclo[6.3.1.0^2,7]dodeca-2,4,6-triene] | 10 to 30 | ++ (5% ≤ X < 25%) | + (LOQ ≤ X < 5%) | ++ (5% ≤ X < 25%) | ++ (5% ≤ X < 25%) | + (LOQ ≤ X < 5%) | + (LOQ ≤ X < 5%) | + (LOQ ≤ X < 5%) | + (LOQ ≤ X < 5%) | + (LOQ ≤ X < 5%) | + (LOQ ≤ X < 5%) | +++ (25% ≤ X < 50%) | + (LOQ ≤ X < 5%)
4 | CC(C)N1C2CCCC1c1cc(F)c(F)cc12 [Compound 41, 4,5-Difluoro-12-(propan-2-yl)-12-azatricyclo[6.3.1.0^2,7]dodeca-2,4,6-triene] | 10 to 30 | ++ (5% ≤ X < 25%) | ++ (5% ≤ X < 25%) | ++ (5% ≤ X < 25%) | ++ (5% ≤ X < 25%) | ++ (5% ≤ X < 25%) | + (LOQ ≤ X < 5%) | + (LOQ ≤ X < 5%) | + (LOQ ≤ X < 5%) | + (LOQ ≤ X < 5%) | + (LOQ ≤ X < 5%) | +++ (25% ≤ X < 50%) | + (LOQ ≤ X < 5%)
5 | c1ccc2c(c1)CC(N1C3CCCC1c1ccccc13)C2 [Compound 11, 12-(2,3-Dihydro-1H-inden-2-yl)-12-azatricyclo[6.3.1.0^2,7]dodeca-2,4,6-triene hydrochloride] | 10 to 30 | + (LOQ ≤ X < 5%) | ++ (5% ≤ X < 25%) | + (LOQ ≤ X < 5%) | ++ (5% ≤ X < 25%) | ++ (5% ≤ X < 25%) | + (LOQ ≤ X < 5%) | + (LOQ ≤ X < 5%) | + (LOQ ≤ X < 5%) | + (LOQ ≤ X < 5%) | + (LOQ ≤ X < 5%) | +++ (25% ≤ X < 50%) | + (LOQ ≤ X < 5%)
6 | CC(C)N1[C@@H]2C[C@@H](C)C[C@H]1c1ccccc12 [Compound 31, 10-Methyl-12-(propan-2-yl)-12-azatricyclo[6.3.1.0^2,7]dodeca-2,4,6-triene hydrochloride] | 1 to 10 | ++++ (50% ≤ X < 100%) | + (LOQ ≤ X < 5%) | + (LOQ ≤ X < 5%) | + (LOQ ≤ X < 5%) | + (LOQ ≤ X < 5%) | ++ (5% ≤ X < 25%) | + (LOQ ≤ X < 5%) | ++ (5% ≤ X < 25%) | + (LOQ ≤ X < 5%) | + (LOQ ≤ X < 5%) | + (LOQ ≤ X < 5%) | + (LOQ ≤ X < 5%)
7 | c1ccc2c(c1)C1CCCC2N1C1CCCC1 [Compound 4, 12-Cyclopentyl-12-azatricyclo[6.3.1.0^2,7]dodeca-2,4,6-triene hydrochloride] | 1 to 10 | +++ (25% ≤ X < 50%) | ++ (5% ≤ X < 25%) | + (LOQ ≤ X < 5%) | ++ (5% ≤ X < 25%) | + (LOQ ≤ X < 5%) | + (LOQ ≤ X < 5%) | + (LOQ ≤ X < 5%) | ++ (5% ≤ X < 25%) | + (LOQ ≤ X < 5%) | + (LOQ ≤ X < 5%) | + (LOQ ≤ X < 5%) | + (LOQ ≤ X < 5%)
8 | c1ccc2c(c1)C1CCCC2N1 [Compound 1, 12-Azatricyclo[6.3.1.0^2,7]dodeca-2,4,6-triene] | 10 to 30 | ++ (5% ≤ X < 25%) | ++ (5% ≤ X < 25%) | + (LOQ ≤ X < 5%) | ++ (5% ≤ X < 25%) | +++ (25% ≤ X < 50%) | + (LOQ ≤ X < 5%) | + (LOQ ≤ X < 5%) | + (LOQ ≤ X < 5%) | + (LOQ ≤ X < 5%) | ++ (5% ≤ X < 25%) | + (LOQ ≤ X < 5%) | + (LOQ ≤ X < 5%)
9 | CC[C@H](C)N1C2CCCC1c1ccccc12 [Compound 26, 12-[(2S)-Butan-2-yl]-12-azatricyclo[6.3.1.0^2,7]dodeca-2,4,6-triene hydrochloride] | 1 to 10 | ++++ (50% ≤ X < 100%) | + (LOQ ≤ X < 5%) | + (LOQ ≤ X < 5%) | + (LOQ ≤ X < 5%) | + (LOQ ≤ X < 5%) | ++ (5% ≤ X < 25%) | + (LOQ ≤ X < 5%) | ++ (5% ≤ X < 25%) | + (LOQ ≤ X < 5%) | + (LOQ ≤ X < 5%) | + (LOQ ≤ X < 5%) | + (LOQ ≤ X < 5%)
